This experiment addresses T1, Protein mono-ADP-ribosyltransferase TIPARP (Homo sapiens, UniProt Q7Z3E1).
T1 sequence (Q7Z3E1 whole entry): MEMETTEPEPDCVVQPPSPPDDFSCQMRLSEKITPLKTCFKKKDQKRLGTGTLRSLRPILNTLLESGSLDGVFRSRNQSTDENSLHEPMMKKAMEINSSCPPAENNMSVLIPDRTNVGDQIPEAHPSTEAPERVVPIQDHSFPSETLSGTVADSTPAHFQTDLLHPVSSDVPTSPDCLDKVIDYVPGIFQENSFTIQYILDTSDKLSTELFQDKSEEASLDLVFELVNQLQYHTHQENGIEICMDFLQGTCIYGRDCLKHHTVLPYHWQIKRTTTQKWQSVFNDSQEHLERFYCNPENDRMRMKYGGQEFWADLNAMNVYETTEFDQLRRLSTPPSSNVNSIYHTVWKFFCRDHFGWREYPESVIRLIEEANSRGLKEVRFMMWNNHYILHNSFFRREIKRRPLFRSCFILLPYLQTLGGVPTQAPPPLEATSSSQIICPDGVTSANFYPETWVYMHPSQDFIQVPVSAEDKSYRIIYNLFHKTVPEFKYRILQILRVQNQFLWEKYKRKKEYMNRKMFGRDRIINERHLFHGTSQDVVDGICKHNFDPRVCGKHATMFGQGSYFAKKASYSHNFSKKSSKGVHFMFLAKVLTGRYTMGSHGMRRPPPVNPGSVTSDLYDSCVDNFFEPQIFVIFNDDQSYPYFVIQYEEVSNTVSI
The experiment in a line: Enzymatic Assay. The procedure:
Displacement of Probe A, a biotinylated probe binding to the TIPARP active site, was measured using a time-resolved fluorescence energy transfer (TR-FRET) assay. 20 nL of a dose response curve of each test compound was spotted in black 384-well polystyrene proxiplates (Perkin Elmer) using a Mosquito (TTP Labtech). Reactions were performed in a 8 μL volume by adding […] of TIPARP and Probe A in assay buffer (20 mM HEPES pH=8, 100 mM NaCl, 0.1% bovine serum albumin, 2 mM DTT and 0.002% Tween20), incubating with test compound at 25° C. for 30 min, then adding 2 μL of ULight-anti 6×His and LANCE Eu-W1024 labeled streptavidin (Perkin Elmer). The final concentrations of TIPARP and Probe A were 6 nM and 2 nM, respectively.
The IC50 is the concentration at which inhibition is half-maximal. High values mean weaker potency in that assay, low ones greater potency in that assay. In turn, `N#Cc1ccc(N2CCN(C(=O)/C=C/COC[C@H]3CCCN3c3cn[nH]c(=O)c3C(F)(F)F)CC2)nc1` [US10870641, Example 96B] returned an IC50 of under 100 nM.
Consider `C[C@@H](CC(=O)N1CCN(c2ccc(C#N)cn2)CC1)OCCOc1cn[nH]c(=O)c1C(F)(F)F` [US10870641, Example 538A], for which the IC50 result was “in the range around 550 nM”.
`N#Cc1cnc(N2CCN(C(=O)c3cc(OC[C@@H]4c5ccccc5CN4c4cn[nH]c(=O)c4C(F)(F)F)ccn3)CC2)nc1` [US10870641, Example 64B] came in with an IC50 of over 1000 nM.

The record behind these values is BindingDB's records for patent US10870641 (Ribon Therapeutics, 2020).
